# Assay results published in patent US10221426B2, “Constitutively active PYR/PYL receptor proteins for improving plant stress tolerance” (The Regents of the University of California, priority 2009, dated 2019).
# Tested on: PYR/PYL receptors PYR1, PYL2, PYL3, and/or PYL4
# Test: Yeast two hybrid agonist screens (conventional and halo assays; compound library and plant extracts)
# Format: cell-based, Arabidopsis
# Description: We next investigated whether other compounds besides ABA and pyrabactin could act as agonists of PYR/PYL proteins. Yeast two hybrid strains expressing ABA-receptors and type 2 C protein phosphatases in the appropriate vectors can be used to monitor activation of ABA receptors. These yeast strains therefore create a facile screening system for the identification of cell permeant compounds that act as ABA agonists, i.e. compounds that promote binding of PYR/PYL family members to their protein phosphatase targets. […]
# To conduct these agonist assays, screening compounds are added to microtiter wells and appropriate yeast growth media are added. The wells are then seeded with PYR/PYL-PP2C strains and agonist activity is monitored after growth of the strains on the chemical-containing medium. […]
# Using a combination of the conventional and halo assays as described above, 65,000 screening compounds were tested for activation of PYR1, PYL2, PYL3 or PYL4 expressing yeast two hybrid strains. Hit compounds that activated any of the yeast strains were retested on all 4 yeast strains and activity assessed qualitatively using X-gal staining assays. […]
substance,measurement,value
copaenoic acid,activation of PYR/PYL yeast two hybrid strains,naturally occurring ABA agonist
